# Results published in patent US10603261B2, “Composition for enhancing hair fiber properties” (The Procter & Gamble Company, priority 2014, dated 2020).
# Assay: Combing force after leave-on hair treatment using neat material
# Settings: hair treated with neat material; 1 and 5 washes
# From the text: This double combing apparatus is attached to an Instron Model 5564. The switch is combed 5 times with a fine-tooth comb and hanged onto the Instron load cell. Then, the hair switch is placed in the double comb apparatus. The Instron pulls the hair vertically at a rate of 10 mm/min until the hair switch clears the final comb. The peak force as the switch passes through the top comb is reported.
# The treatment is repeated to two additional switches. The treated hair switches are allowed to rest for 24 hours under controlled temperature and relative humidity conditions (27° C. and 50% RH). After this time period, each hair switch is washed with a clarifying shampoo (see shampoo washing protocol below) and allowed to air dry for 24 hours under controlled temperature and relative humidity conditions (27° C. and 50% RH). The combing force is measured for each switch and an average for the three switches is calculated. […] Linoleic acid • b.
# Each application consists of adding shampoo to the hair, milking for 30 seconds followed by rinsing for 30 seconds. Shampoo is then reapplied (0.1 g/g), milked for 30 seconds and rinsed for 30 seconds.
structure (smiles),measurement,value
CCCCCCCC/C=C\CCCCCCCC(=O)O [Oleic acid],combability (in words),better combability
